What follows are molecules tested against Sodium-dependent dopamine transporter (Rattus norvegicus, UniProt P23977) (assay: Displacement of [3H]WIN-35 428 binding at dopamine transporter (DAT) in rat caudate putamen).
Assay type: tissue-based

Sequence of Sodium-dependent dopamine transporter (P23977 whole entry): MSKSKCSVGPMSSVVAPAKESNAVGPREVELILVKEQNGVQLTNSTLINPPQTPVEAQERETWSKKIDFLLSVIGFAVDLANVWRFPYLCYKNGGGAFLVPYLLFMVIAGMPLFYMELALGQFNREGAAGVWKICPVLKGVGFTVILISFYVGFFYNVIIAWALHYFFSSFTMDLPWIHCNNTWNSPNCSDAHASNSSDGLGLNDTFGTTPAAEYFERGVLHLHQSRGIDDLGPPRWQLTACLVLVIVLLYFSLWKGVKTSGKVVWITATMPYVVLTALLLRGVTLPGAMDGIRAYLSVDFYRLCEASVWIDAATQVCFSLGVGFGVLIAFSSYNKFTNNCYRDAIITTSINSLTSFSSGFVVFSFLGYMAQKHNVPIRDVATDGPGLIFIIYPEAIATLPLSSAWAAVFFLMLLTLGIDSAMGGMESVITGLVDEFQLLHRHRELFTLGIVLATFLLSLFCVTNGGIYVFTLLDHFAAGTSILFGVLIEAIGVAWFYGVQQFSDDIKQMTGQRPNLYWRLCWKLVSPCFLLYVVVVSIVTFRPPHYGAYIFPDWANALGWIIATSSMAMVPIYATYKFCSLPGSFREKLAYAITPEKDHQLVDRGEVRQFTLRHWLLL

| SMILES | Ki [nM] |
| --- | --- |
| COC(=O)C1C(c2ccc(Cl)cc2)CC2CCC1N2CCCCc1ccc(N=[N+]=[N-])c(I)c1 (stereo unspecified) | 33 |
| COC(=O)C1C(c2ccc(Cl)cc2)CC2CCC1N2CCCCc1ccc(N=C=S)cc1 (stereo unspecified) | 31.5 |
| CN1C2CCC1C(C(=O)OCCc1ccc(N=[N+]=[N-])c(I)c1)C(c1ccc(Cl)cc1)C2 (stereo unspecified) | 14.5 |
| Fc1ccc(C(O[C@H]2C[C@H]3CC[C@@H](C2)N3CCCCc2ccc(N=C=S)cc2)c2ccc(F)cc2)cc1 | 420 |
| [N-]=[N+]=Nc1ccc(CCCN2[C@@H]3CC[C@H]2C[C@@H](OC(c2ccc(F)cc2)c2ccc(F)cc2)C3)cc1I | 284 |
| Fc1ccc(C(O[C@H]2C[C@H]3CC[C@@H](C2)N3CCCc2ccc(N=C=S)cc2)c2ccc(F)cc2)cc1 | 611 |

From ChEMBL document CHEMBL1134308, “Novel tropane-based irreversible ligands for the dopamine transporter” (J Med Chem, 2001)
